Laboratory results taken from patent US6737383B1, “Herbicidal oxadiazolidines” (priority 1999, dated 2004).

Legend:
rice = test: Test B flood test rice; assay type: in vivo, Oryza sativa
Procedure: At the same time, these crop and weed species were also treated with postemergence applications of test chemicals formulated in the same manner. Plants ranged in height from 2 to 18 cm (1- to 4-leaf stage) for postemergence treatments. Plant species in the flood test consisted of rice (Oryza sativa), smallflower flatsedge (Cyperus difformis), duck salad (Heteranthera limosa) and bamyardgrass (Echinochloa crus-galli) grown to the 2-leaf stage for testing. Treated plants and controls were maintained in a greenhouse for twelve to sixteen days, after which all species were compared to controls and visually evaluated. Plant response ratings, summarized in Table B, are based on a scale of 0 to 10 where 0 is no effect and 10 is complete control. A dash (−) response means no test result.

bamyardgrass = test: Test B flood test barnyardgrass; assay type: in vivo, Echinochloa crus-galli
Outline: (§1)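 Read-out is a visual response score from 0 (no effect) to 10 (complete control), assigned by comparison with untreated controls. Treatment was applied at the 2-leaf stage, and plants stayed in the greenhouse for twelve to sixteen days before scoring.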

corn = test: Test B pre/postemergence corn; assay type: in vivo, Zea mays
Outline: (§2)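 Herbicidal effect was estimated by eye on a ten-point control scale after plants spent twelve to sixteen days in a greenhouse following soil or foliar treatment. Foliar sprays targeted plants at one to four leaves; all doses were formulated in a non-phytotoxic solvent with surfactant.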

smallflower flatsedge = test: Test B flood test smallflower flatsedge; assay type: in vivo, Cyperus difformis
Outline: as §1

duck salad = test: Test B flood test duck salad; assay type: in vivo, Heteranthera limosa
Outline: as §1

cocklebur = test: Test B pre/postemergence cocklebur; assay type: in vivo, Xanthium strumarium; details: Preemergence
Outline: as §2

morningglory = test: Test B pre/postemergence morningglory; assay type: in vivo, Ipomoea hederacea; details: Preemergence, scale of 0 to 10 where 0 is no effect and 10 is complete control
Outline: as §2

purple nutsedge = test: Test B pre/postemergence purple nutsedge; assay type: in vivo, Cyperus rotundus; details: Preemergence, Rate 62 g/ha; scale of 0 to 10 where 0 is no effect and 10 is complete control
Outline: as §2

bedstraw = test: Test B pre/postemergence bedstraw; assay type: in vivo, Galium aparine; details: Preemergence
Outline: as §2

velvetleaf = test: Test B pre/postemergence velvetleaf; assay type: in vivo, Abutilon theophrasti; details: Preemergence, scale of 0 to 10 where 0 is no effect and 10 is complete control
Outline: as §2

wild oat = test: Test B pre/postemergence wild oat; assay type: in vivo, Avena fatua; details: Preemergence, scale of 0 to 10 where 0 is no effect and 10 is complete control
Outline: as §2

soybean = test: Test B pre/postemergence soybean; assay type: in vivo, Glycine max; details: Preemergence, scale of 0 to 10 where 0 is no effect and 10 is complete control
Outline: as §2

wheat = test: Test B pre/postemergence wheat; assay type: in vivo, Triticum aestivum; details: Preemergence, scale of 0 to 10 where 0 is no effect and 10 is complete control
Outline: as §2

blackgrass = test: Test B pre/postemergence blackgrass; assay type: in vivo, Alopecurus myosuroides; details: Preemergence
Outline: as §2

crabgrass = test: Test B pre/postemergence crabgrass; assay type: in vivo, Digitaria sanguinalis; details: Preemergence
Outline: as §2

surinam grass = test: Test B pre/postemergence surinam grass; assay type: in vivo, Brachiaria decumbens; details: Preemergence
Outline: as §2

giant foxtail = test: Test B pre/postemergence giant foxtail; assay type: in vivo, Setaria faberii; details: Preemergence, scale of 0 to 10 where 0 is no effect and 10 is complete control
Outline: as §2

rape = test: Test B pre/postemergence rape; assay type: in vivo, Brassica napus; details: Preemergence, scale of 0 to 10 where 0 is no effect and 10 is complete control
Outline: as §2

sugar beet = test: Test B pre/postemergence sugar beet; assay type: in vivo, Beta vulgaris; details: Preemergence, scale of 0 to 10 where 0 is no effect and 10 is complete control
Outline: as §2

pigweed = test: Test B pre/postemergence pigweed; assay type: in vivo, Amaranthus retroflexus; details: Preemergence, scale of 0 to 10 where 0 is no effect and 10 is complete control
Outline: as §2

[1] = Postemergence, Rate 62 g/ha, scale 0 to 10, 0 is no effect, 10 is complete control
[2] = Rate 125 g/ha, Postemergence section (flood test species), scale 0 to 10, 0 no effect, 10 complete control
[3] = Rate 500 g/ha, listed under Postemergence (flood test species), scale 0 to 10, 0 no effect, 10 complete control
[4] = flood test, listed under Postemergence, Rate 250 g/ha, scale 0 to 10, 0 no effect, 10 complete control
[5] = Rate 62 g/ha, scale of 0 to 10 where 0 is no effect and 10 is complete control
[6] = Rate 125 g/ha, scale of 0 to 10 where 0 is no effect and 10 is complete control
[7] = Rate 250 g/ha, scale 0 to 10 (0 no effect, 10 complete control)
[8] = Rate 500 g/ha, scale of 0 to 10 where 0 is no effect and 10 is complete control
[9] = Rate 62 g/ha, flood test species, Pre-emergence, visual evaluation after twelve to sixteen days
[10] = Rate 125 g/ha, under heading Pre-emergence, flood test species, visual evaluation after twelve to sixteen days
[11] = Rate 250 g/ha, Pre-emergence (flood test species), scale 0 to 10, 0 is no effect, 10 is complete control
[12] = Rate 500 g/ha, Pre-emergence section of Table B, 0 to 10 scale (0 no effect, 10 complete control)

SMILES: Cc1ccccc1-n1c(=O)on(C(=O)N(c2ccc(F)cc2F)C2CC2)c1=O [Compound 50]
- Rice plant response rating (rice; [1]): 0
- Rice plant response rating (rice; [2]): 0
- Rice plant response rating (rice; [3]): 0
- Rice plant response rating (rice; [4]): 0
- Barnyardgrass plant response rating (bamyardgrass; [1]): 0
- Barnyardgrass plant response rating (bamyardgrass; [2]): 0
- Barnyardgrass plant response rating (bamyardgrass; [3]): 0
- Barnyardgrass plant response rating (bamyardgrass; [4]): 0
- Corn plant response rating (corn; Rate 125 g/ha, Postemergence, scale 0 to 10, 0 no effect, 10 complete control): 0
- S. Flatsedge plant response rating (smallflower flatsedge; [1]): 0
- S. Flatsedge plant response rating (smallflower flatsedge; [2]): 0
- S. Flatsedge plant response rating (smallflower flatsedge; [3]): 0
- S. Flatsedge plant response rating (smallflower flatsedge; [4]): 0
- Ducksalad plant response rating (duck salad; [1]): 0
- Ducksalad plant response rating (duck salad; [2]): 0
- Ducksalad plant response rating (duck salad; [3]): 0
- Ducksalad plant response rating (duck salad; [4]): 0

SMILES: CC(C)N(C(=O)n1oc(=O)n(C(C)C2CCC2)c1=O)c1ccc(Cl)cc1 (stereo not shown) [Compound 701]
- Cocklebur plant response rating (cocklebur; [5]): 0
- Plant response rating, Cocklebur (cocklebur; [6]): 0
- Plant response rating, Cocklebur (cocklebur; [7]): 0
- Plant response rating, Cocklebur (cocklebur; [8]): 0
- Morningglory plant response rating (morningglory; Rate 62 g/ha): 0
- Plant response rating, Morningglory (morningglory; Rate 125 g/ha): 0
- Nutsedge plant response rating (purple nutsedge): 0
- Bedstraw plant response rating (bedstraw; [5]): 0
- Plant response rating, Bedstraw (bedstraw; [6]): 0
- Plant response rating, Bedstraw (bedstraw; [7]): 0
- Plant response rating, Bedstraw (bedstraw; [8]): 0
- Plant response rating, Barnyardgrass (0 to 10 scale, 0 is no effect, 10 is complete control) (bamyardgrass; [9]): 0
- Barnyardgrass plant response rating (0 to 10 scale, 0 is no effect, 10 is complete control) (bamyardgrass; [10]): 0
- Barnyardgrass plant response rating (bamyardgrass; [11]): 0
- Barnyardgrass plant response rating (bamyardgrass; [12]): 0
- Velvetleaf plant response rating (velvetleaf; Rate 62 g/ha): 0
- Plant response rating, Velvetleaf (velvetleaf; Rate 125 g/ha): 0
- Wild oats plant response rating (wild oat; Rate 62 g/ha): 0
- Plant response rating, Wild oats (wild oat; Rate 125 g/ha): 0
- Soybean plant response rating (soybean; Rate 62 g/ha): 0
- Plant response rating, Soybean (soybean; Rate 125 g/ha): 0
- Corn plant response rating (corn; Preemergence, Rate 62 g/ha, scale of 0 to 10 where 0 is no effect and 10 is complete control): 0
- Plant response rating, Corn (corn; Preemergence, Rate 125 g/ha, scale of 0 to 10 where 0 is no effect and 10 is complete control): 0
- Plant response rating, Corn (corn; Preemergence, Rate 250 g/ha, scale 0 to 10 (0 no effect, 10 complete control)): 0
- Wheat plant response rating (wheat; Rate 62 g/ha): 0
- Plant response rating, Wheat (wheat; Rate 125 g/ha): 0
- Plant response rating, S. Flatsedge (0 to 10 scale, 0 is no effect, 10 is complete control) (smallflower flatsedge; [9]): 0
- S. Flatsedge plant response rating (0 to 10 scale, 0 is no effect, 10 is complete control) (smallflower flatsedge; [10]): 0
- S. Flatsedge plant response rating (smallflower flatsedge; [11]): 0
- S. Flatsedge plant response rating (smallflower flatsedge; [12]): 0
- Plant response rating, Ducksalad (0 to 10 scale, 0 is no effect, 10 is complete control) (duck salad; [9]): 0
- Ducksalad plant response rating (0 to 10 scale, 0 is no effect, 10 is complete control) (duck salad; [10]): 0
- Ducksalad plant response rating (duck salad; [11]): 0
- Ducksalad plant response rating (duck salad; [12]): 3
- Blackgrass plant response rating (blackgrass; [5]): 0
- Plant response rating, Blackgrass (blackgrass; [6]): 2
- Plant response rating, Blackgrass (blackgrass; [7]): 2
- Plant response rating, Blackgrass (blackgrass; [8]): 6
- Crabgrass plant response rating (crabgrass; [5]): 0
- Plant response rating, Crabgrass (crabgrass; [6]): 10
- Plant response rating, Crabgrass (crabgrass; [7]): 10
- B. signalgrass plant response rating (surinam grass; [5]): 0
- Plant response rating, B. signalgrass (surinam grass; [6]): 0
- Plant response rating, B. signalgrass (surinam grass; [7]): 0
- Plant response rating, B. signalgrass (surinam grass; [8]): 0
- Giant foxtail plant response rating (giant foxtail; Rate 62 g/ha): 6
- Plant response rating, Giant foxtail (giant foxtail; Rate 125 g/ha): 10
- Rape plant response rating (rape; Rate 62 g/ha): 0
- Plant response rating, Rape (rape; Rate 125 g/ha): 0
- Sugarbeets plant response rating (sugar beet; Rate 62 g/ha): 0
- Plant response rating, Sugarbeets (sugar beet; Rate 125 g/ha): 0
- Redroot pigweed plant response rating (pigweed; Rate 62 g/ha): 0
- Plant response rating, Redroot pigweed (pigweed; Rate 125 g/ha): 0
